# In US5811074A, “Method of diagnosing pituitary dependent growth hormone deficiency” (University of South Florida, priority 1996, dated 1998):
# Where a SMILES comes first, the peptide text is derived from it. Where no end group is shown, it is not given here. [ ]: non-standard residue; d: D form.
# Experiments:
# GH secretion [1] = assay: Repeated injections of GHRH preceded by GHRP in the same individual, peak serum GH; assay type: in vivo; conditions: repeated tests in same individual
# Description: The timing between the sequential, independent challenges must be between two and four hours with the preferred embodiment at two hours (120 minutes after GHRX administration). Blood is drawn at regular intervals for up to two hours after the administration of each secretagogue, generally every 5 minutes for the first 20 minutes after administration and 10-15 minute intervals thereafter for the remaining two hours. From these blood samples the peak GH response is measured thereby determining if GH level changes after each administration has occurred.
# Relevant to using GHRH and GHRP as diagnostic agents is the fact that GHRP eliminates the endogenous factors causing variability in the GHRH response. Administration before GHRH creates an episode of GH secretion that "resets" the sensitivity of the GH neurosecretory axis to stimulation by GHRH, so that at the time of GHRH administration, uniform baseline conditions in the subject have been achieved. This then puts the GH neurosecretory axis in a uniform state of readiness for GHRH so that a subsequent relatively stable and constant episode of GHRH-stimulated GH secretion results (Table 3). This GHRH stimulated GH secretory episode can then be compared with the stable episode of GHRP-stimulated GH secretion that preceded it as a basis for the diagnostic test of the present invention.
# GH secretion [2] = assay: Pediatric study: sequential GHRP then GHRH bolus, and co-administration, serum GH by radioimmunoassay; assay type: in vivo, children; conditions: for GH response to sequentially administered secretagogue: hypopituitary subject (atrophic, developmentally retarded pituitary gland), FIG. 4B
# Description: The protocol used in the pediatric study from which data presented below were collected involved the sequential administration of exogenous GHRP and exogenous GHRH as set forth in the present invention (Table 4; FIGS. 1A-1B). Briefly, each subject began testing at approximately 0900 h, one half hour after placement of an intravenous catheter. Two blood samples for basal concentrations of serum GH were drawn, and GHRP (1 μg/kg) was administered as a bolus. Blood samples were then drawn at five minute intervals for 20 minutes during which the GH secretory response occurred, and at longer intervals for about two hours thereafter.
# GHRH (1 μg/kg) was then administered as a bolus, when basal GH concentrations were again established. Blood samples were similarly collected after GHRH administration as they were following GHRP administration. GH concentrations in each serum was then determined by radioimmunoassay.
# The study population was composed of children with normal GH secretory function (serving as controls and normal baseline values) and those with GH secretory dysfunction of various clinical diagnoses. The purpose of evaluating different etiologies of GH secretory dysfunction was to validate the hypothesis that complementary endogenous GH secretagogues must be present for optimal expression of GHRP or GHRH stimulatory potential.
# GH release [3] = assay: GH release after GHRP-6 alone and in combination with GHRH in old versus young rats; assay type: in vivo, Fischer 344 rats; conditions: GHRP-6 alone, old vs young rats
# Description: Fischer 344 rats (Charles River), both male and female, were used. Young animals are defined as sexually mature between 2 and 7 months of age. Old animals are defined as those over 16 months of age.
# GHRH-efficacy has been reported to be reduced 50 to 75% in old rats (Sonntag et al., 1983); therefore, applicants tested the effect of GHRP-6 alone and in combination with GHRH on GH release in old rats. Peak plasma GH concentrations resulting from GHRP-6 administration in old rats were approximately 60% less than in young rats. […] Since target organs sometimes become hyperresponsive when tonic and/or phasic stimulation decreases, than one would expect exaggerated responses to provocative exogenous stimuli under experimental conditions. GH hypersecretion observed in naive, old rats administered a single bolus of GHRH and GHRP (Walker et al., 1991) provides support for the hypothesis that deficits in stimulated GH secretion in aged rats were due to insufficient signals or inappropriately transduced GH releasing stimuli.
# GH secretion [4] = assay: Provocative challenge with a GH secretagogue administered alone, peak serum GH; assay type: in vivo
# Description: The diagnostic potential of GHRX and GHRH, with GHRP and growth hormone releasing hormone respectively the preferred compounds, for determining the etiology of GH secretory deficiency is profoundly affected by the sequence in which the secretagogues are administered. When GHRH is administered alone, the GH secretory response it elicits is extremely variable and is poorly dose related (Table 1).
# On the other hand, the response to GHRP administered alone is not variable (Table 2). The minimal variability of the GHRP response is presumed to result from its partial action as a somatostatin […].
# The growth hormone levels in the blood of the child or adult can be measured by any well known procedures, e.g., using an immunoradiometric assay as described by Bowers et al. (1990) or any other contemporary, scientifically accepted method.
# GH release [5] = conditions: rats; Bercu et al., 1992a; cited from earlier work
# GH release [6] = assay: GHRP-6 activity in young rats with reduced endogenous GHRH (GHRH antiserum or α-methyl-p-tyrosine); assay type: in vivo
# Description: FIG. 2 is a dose response curve for GHRP-6 in rats pretreated with vehicle (triangles), α-methyl-p-tyrosine (circles), or GHRH antiserum (squares). Values represent means±SEM (8 rats per dose and treatment) in plasma collected 15 minutes after administration of GHRP-6.
# Young rats were passively immunized against endogenous GHRH or administered α-methyl-.rho.-tyrosine. If GHRH and the endogenous ligand of GHRP-6 are physiological co-agonists of GH secretion in the young rat, then removal of one or the other should be expressed as attenuated activity of its co-agonist when administered alone. Passive immunization which inactivates GHRH with neutralizing antibodies, or α-methyl-p-tyrosine (L form) which blocks stimulation of hypothalamic GHRH neurons were used to remove or reduce concentrations of endogenous GHRH in the young experimental animals. These treatments were intended to simulate the aged condition in which concentrations of GHRH and GHRH mRNA are low (De Gennaro Collona et al., 1989; Morimoto et al., 1988). Afterwards, GHRP-6 was administered to test and compare its efficacy with that in old rats (Walker et al., 1991).
# Presumably, naturally occurring decrements in endogenous GHRH during aging contributed to the blunted response to GHRP-6 that applicants observed (Walker et al., 1991). […]
# pituitary GHRH receptor = molecular target: T1, pituitary GHRH receptor (Rattus norvegicus, UniProt Q02644); assay: Effect of GHRH receptor antagonist on GH release in response to GHRP-6 or morphine in young rats; assay type: in vivo
# T1 construct: tissue Charles River; host or cells: living Fischer 344 rats (pituitary, in vivo)
# T1 sequence (Q02644 23-464): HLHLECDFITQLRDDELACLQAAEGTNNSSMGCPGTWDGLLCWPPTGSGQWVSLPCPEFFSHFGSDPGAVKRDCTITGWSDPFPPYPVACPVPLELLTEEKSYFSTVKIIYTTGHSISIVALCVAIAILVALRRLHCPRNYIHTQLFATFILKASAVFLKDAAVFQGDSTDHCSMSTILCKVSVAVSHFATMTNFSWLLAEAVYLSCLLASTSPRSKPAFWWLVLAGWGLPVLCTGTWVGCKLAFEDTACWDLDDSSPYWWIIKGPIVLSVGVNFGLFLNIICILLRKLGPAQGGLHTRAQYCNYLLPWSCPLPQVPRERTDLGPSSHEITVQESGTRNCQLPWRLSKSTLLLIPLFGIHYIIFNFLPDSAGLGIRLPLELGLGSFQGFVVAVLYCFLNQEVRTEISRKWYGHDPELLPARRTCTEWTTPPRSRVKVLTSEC
# Description: FIGS. 3A-3B are dose response curves showing the effect of [N-Ac-Tyr^1,D-Arg^2 ]-GRF 1-29 amide, a GHRHreceptor antagonist, on GH release in response to GHRP-6 (30 μg/kg, closed symbols, FIG. 3A) or morphine (1.5 mg/kg, open symbols, FIG. 3B). The GHRH receptor antagonist was administered in doses of 0 (circle), 5 (square), 50 (triangle), or 150 (diamond) μg/kg. Values represent mean±SEM 8 rats per group.
# The second possible cause of age-related decrements in GH secretion applicants considered was that deterioration in GH secretagogue signal transduction at the pituitary level contributes to the progressive insensitivity to provocative stimuli. In a test of this hypothesis, applicants examined GH secretory responses to GHRP-6 in young rats administered [N-Ac-Tyr^1, D-Arg^2 ]-GRF 1-29, an antagonist to the pituitary GHRH receptor.
# However, 150 μg/kg of [N-Ac-Tyr^1, D-Arg^2 ]-GRF 1-29 amide potentiated GHRP-6 activity, presumably due to partial agonist activity of the GHRH receptor […] at the higher dose (Bercu et al., 1992a).
compound,measurement,setting,value
"C[C@H](NC(=O)[C@@H](Cc1c[nH]c2ccccc12)NC(=O)[C@@H](N)Cc1c[nH]cn1)C(=O)N[C@@H](Cc1c[nH]c2ccccc12)C(=O)N[C@H](Cc1ccccc1)C(=O)N[C@@H](CCCCN)C(N)=O [GHRP-6, His-D-Trp-Ala-Trp-D-Phe-Lys-NH2] (H-H[dW]AW[dF]K-NH2)",Peak Serum GH x ± SEM,GH secretion [1]; GHRP 1.0 μg/kg given first,69.31 ± 4.21 ng/mL
same,GHRP:GHRH ratio,GH secretion [2]; children after radiation of the head (group),< 1
same,GHRP:GHRH ratio,GH secretion [2]; children responding poorly to both secretagogues but better to GHRP (group),> 3
same,GHRP to GHRH ratio,"GH secretion [2]; constitutional delay subject, FIG. 4C",3.1
same,"Peak response, serum GH","GH secretion [2]; constitutional delay subject, FIG. 4C, GHRP-6 1 μg/kg",13.5 ng/mL
same,GH response to sequentially administered secretagogue,GH secretion [2],responded to neither
same,GHRP to GHRH ratio,"GH secretion [2]; irradiated subject, FIG. 4D",0.38
same,"Peak response, serum GH","GH secretion [2]; irradiated subject, FIG. 4D, GHRP-6 1 μg/kg",18.9 ng/mL
same,"Peak plasma GH concentration in old rats, less than in young rats",GH release [3],approximately 60%
same,Peak Serum GH x ± SEM,"GH secretion [4]; GHRP alone, 0.1 μg/kg",17.51 ± 1.91 ng/mL
same,Peak Serum GH x ± SEM,"GH secretion [4]; GHRP alone, 0.5 μg/kg",41.31 ± 3.97 ng/mL
same,Peak Serum GH x ± SEM,"GH secretion [4]; GHRP alone, 1.0 μg/kg",67.88 ± 6.1 ng/mL
same,Peak Serum GH x ± SEM,"GH secretion [4]; GHRP alone, 1.5 μg/kg",81.60 ± 5.88 ng/mL
same,Reduction of GHRP-6 activity by passive immunization against endogenous GHRH,GH release [5],approximately 90%
same,GHRP-6 activity (plasma GH 15 minutes after GHRP-6),GH release [6]; young female rats pretreated with GHRH antiserum,significantly attenuated
same,GHRP-6 activity (plasma GH 15 minutes after GHRP-6),GH release [6]; young female rats pretreated with α-methyl-p-tyrosine,significantly attenuated
"GHRH: naturally occurring GH releasing hormone (growth hormone releasing hormone) (YADAIFTNSYRKVLGQLSARKLLQDIMSRQQGESNQERGARARL; ends and bridges not checked; UniProt P01286 32-75, looked up)",Peak Serum GH x ± SEM,GH secretion [1]; GHRH 1.0 μg/kg preceded by GHRP,32.66 ± 3.33 ng/mL
same,"Peak response, serum GH","GH secretion [2]; constitutional delay subject, FIG. 4C, GHRH 1 μg/kg",4.4 ng/mL
same,GH response to sequentially administered secretagogue,GH secretion [2],responded to neither
same,"Peak response, serum GH","GH secretion [2]; irradiated subject, FIG. 4D, GHRH 1 μg/kg",49.4 ng/mL
same,Peak Serum GH x ± SEM,"GH secretion [4]; GHRH alone, 0.1 μg/kg",9.46 ± 3.71 ng/mL
same,Peak Serum GH x ± SEM,"GH secretion [4]; GHRH alone, 0.33 μg/kg",16.45 ± 8.11 ng/mL
same,Peak Serum GH x ± SEM,"GH secretion [4]; GHRH alone, 1.0 μg/kg",13.54 ± 6.51 ng/mL
same,Peak Serum GH x ± SEM,"GH secretion [4]; GHRH alone, 3.3 μg/kg",21.80 ± 6.78 ng/mL
same,Peak Serum GH x ± SEM,"GH secretion [4]; GHRH alone, 10.0 μg/kg",17.41 ± 4.67 ng/mL
"[N-Ac-Tyr^1,D-Arg^2 ]-GRF 1-29 amide [[N-Ac-Tyr^1, D-Arg^2]-GRF 1-29 amide]",GHRP-6 stimulated GH secretion as a function of time,"pituitary GHRH receptor; 50 μg/kg antagonist, P<0.05, FIG. 3A",significantly reduced
same,GHRP-6 stimulated GH secretion as a function of time,"pituitary GHRH receptor; 150 μg/kg antagonist, P<0.01, FIG. 3A",significantly increased
same,Effect on GHRP-6 activity,"pituitary GHRH receptor; 150 μg/kg, GHRP-6 30 μg/kg",potentiated
same,Morphine-stimulated GH secretion,"pituitary GHRH receptor; 50 and 150 μg/kg antagonist, P<0.05, morphine 1.5 mg/kg, FIG. 3B",significantly reduced
same,Effect on GHRP activity,"pituitary GHRH receptor; pre-administration of 5 to 50 μg/kg, GHRP-6 30 μg/kg",attenuated
